Holding throughout (type): protein-complex assay
Assay [1] deals with T1, Integrin alpha-V/beta-3 (Homo sapiens) (UniProt P05106+P06756). The assay can be described thus: Displacement of [125I]echistatin from integrin alpha-V-beta-3 receptor at 1 uM.
Assay [2] concerns the target T1, Integrin alpha-V/beta-3 (Homo sapiens). Kind of assay: Displacement of [125I]echistatin from integrin alpha-V-beta-3 receptor at 10 uM. (Displacement assays read how much labelled ligand stays bound in the presence of the test substance.)
Assay [3] shares this target. Kind of assay: Displacement of [125I]echistatin from integrin alpha-V-beta-3 receptor at 0.001 uM.
Assay [4] concerns the target T2, Integrin alpha-V/beta-5 (Homo sapiens) (UniProt P06756+P18084). Kind of assay: Displacement of [125I]echistatin from integrin alpha-V-beta-5 receptor at 1000 uM.
Assay [5] concerns the target T1, Integrin alpha-V/beta-3 (Homo sapiens). Kind of assay: Displacement of [125I]echistatin from integrin alpha-V-beta-3 receptor at 0.1 uM.
Assay [6] has the same target. The assay can be described thus: Displacement of [125I]echistatin from integrin alpha-V-beta-3 receptor at 0.01 uM.
Assay [7] addresses T2, Integrin alpha-V/beta-5 (Homo sapiens). Kind of assay: Displacement of [125I]echistatin from integrin alpha-V-beta-5 receptor at […].

For orientation: inhibition means the percentage by which the read-out fell short of the control. As to `CC12CC/C=C\CC(NC1=O)C(=O)N[C@H](CCCNC(=N)N)C(=O)NCC(=O)N[C@@H](CC(=O)O)C(=O)N2` (stereo in doubt; 3a), the inhibition in assay [1] was 30%; in assay [2] it was 62%.

As to `N=C(N)NCCC[C@@H]1NC(=O)CNC(=O)[C@@H](CC(=O)O)N[C@H]2CCC[C@H]3CC[C@H](C1=O)N3C2=O`, in assay [3], the inhibition was 85%.

Turning to `CC12CC/C=C\CC(NC1=O)C(=O)N[C@H](CCCNC(=N)N)C(=O)NCC(=O)N[C@@H](CC(=O)O)C(=O)N2Cc1ccccc1` (stereo in doubt; 2b), the inhibition in assay [1] was found to be 50%; in assay [2], 52%; in assay [4], 13%; in assay [5], 53%; in assay [6], 15%; in assay [3] it was 5%. In assay [7], this compound returned an inhibition of 15%.

Turning to `CC12CC/C=C\CC(NC1=O)C(=O)N[C@H](CCCNC(=N)N)C(=O)NCC(=O)N[C@@H](CC(=O)O)C(=O)N2Cc1ccccc1` (stereo in doubt; 2a), the inhibition in assay [1] turned out to be 49%; in assay [2] it was 48%; in assay [4] it was 13%; in assay [7], 17%.

As to `CC12CC/C=C\CC(NC1=O)C(=O)N[C@H](CCCNC(=N)N)C(=O)NCC(=O)N[C@@H](CC(=O)O)C(=O)N2` (stereo in doubt; 3b), the inhibition in assay [1] turned out to be 30%; in assay [2], 62%.
